Laboratory results published in the supplement of paper PMC13380429.
Where a name gives a salt, the structure may show the parent alone. ± gives the standard deviation of the averaged measurements.

Assays:
Details in all cases: 72 h
HepG2 [1] = test: relative viability EC50 (midpoint between 100% and the lowest measured viability); higher = less toxic
U2OS [2] = test: as above
Vero E6 [3] = test: as above
Caco-2 [4] = test: as above
Calu-3 [5] = test: as above
HepG2 [6] = test: cell viability relative to DMSO; higher = less toxic
U2OS [7] = test: as above
Vero E6 [8] = test: as above
Caco-2 [9] = test: as above
Calu-3 [10] = test: as above
HepG2 [11] = test: drug sensitivity score (DSS) for viability; higher = more toxic; extreme values may be limits of the assay
U2OS [12] = test: as above
Vero E6 [13] = test: as above
Caco-2 [14] = test: as above
Calu-3 [15] = test: as above

Structure (SMILES)	relative viability EC50 (HepG2 [1]) [µM]	relative viability EC50 (U2OS [2]) [µM]	relative viability EC50 (Vero E6 [3]) [µM]	relative viability EC50 (Caco-2 [4]) [µM]	relative viability EC50 (Calu-3 [5]) [µM]	cell viability (HepG2 [6]; 1 nM) [%]	cell viability (HepG2 [6]; 10 nM) [%]	cell viability (HepG2 [6]; 100 nM) [%]	cell viability (HepG2 [6]; 1000 nM) [%]	cell viability (HepG2 [6]; 10000 nM) [%]	cell viability (U2OS [7]; 1 nM) [%]	cell viability (U2OS [7]; 10 nM) [%]	cell viability (U2OS [7]; 100 nM) [%]	cell viability (U2OS [7]; 1000 nM) [%]	cell viability (U2OS [7]; 10000 nM) [%]	cell viability (Vero E6 [8]; 1 nM) [%]	cell viability (Vero E6 [8]; 10 nM) [%]	cell viability (Vero E6 [8]; 100 nM) [%]	cell viability (Vero E6 [8]; 1000 nM) [%]	cell viability (Vero E6 [8]; 10000 nM) [%]	cell viability (Caco-2 [9]; 1 nM) [%]	cell viability (Caco-2 [9]; 10 nM) [%]	cell viability (Caco-2 [9]; 100 nM) [%]	cell viability (Caco-2 [9]; 1000 nM) [%]	cell viability (Caco-2 [9]; 10000 nM) [%]	cell viability (Calu-3 [10]; 1 nM) [%]	cell viability (Calu-3 [10]; 10 nM) [%]	cell viability (Calu-3 [10]; 100 nM) [%]	cell viability (Calu-3 [10]; 1000 nM) [%]	cell viability (Calu-3 [10]; 10000 nM) [%]	drug sensitivity score (HepG2 [11])	drug sensitivity score (U2OS [12])	drug sensitivity score (Vero E6 [13])	drug sensitivity score (Caco-2 [14])	drug sensitivity score (Calu-3 [15])
CCOc1ccc2ccccc2c1C(=O)N[C@@H]1C(=O)N2[C@@H]1SC(C)(C)[C@@H]2C(=O)O [nafcillin]	> 10	> 10	> 10	> 10	> 10	99.5	91.5	96.8	92.4	99.5	98.2	99.6	94.5	100	106	103	90.3	94.2	104	95.7	99	96.4	99.9	101	105	91.1	107	101	99.5	102	0	0	0	0	0
COc1cccc2c1C(=O)c1c(O)c3c(c(O)c1C2=O)C[C@@](O)(C(=O)CO)C[C@@H]3O[C@H]1C[C@H](N)[C@@H](O)[C@H](C)O1 [Epirubicin Hydrochloride]	0.0903	0.349	1.13	0.3	0.224	102.8 ± 0.14	93.2 ± 12	49.7 ± 0.57	12.25 ± 0.071	4.25 ± 0.64	95.5 ± 1.4	99.7 ± 0.28	90.2 ± 1.8	17.1 ± 9.9	3.15 ± 1.3	100 ± 2	96.5 ± 2	96 ± 3.5	71.1 ± 3.7	34.4 ± 8	95.8 ± 5.9	97 ± 6.3	89 ± 1.4	40.8 ± 1.2	30.9 ± 1.7	101 ± 3.3	102 ± 6.4	80 ± 6.6	41.2 ± 1.1	30.4 ± 0.49	22.9 ± 0.14	16.6 ± 1.5	7	12.3 ± 0.35	13.3 ± 0.99
O=c1[nH]c(CCl)nc2sc3c(c12)CCCC3	> 10	> 10	> 10	–	> 10	92.7	94.5	96.2	107	81.8	103	94.5	98.8	100	80.6	99.4	101	95.8	96.4	92.9	96.8	99.1	98.3	98.8	71	116	98.1	97.9	92	109	0.2	0.5	0	1.4	0
COC[C@@H](NC(C)=O)C(=O)NCc1ccccc1 [Lacosamide]	> 10	> 10	> 10	> 10	> 10	98.3	97.5	98.3	98	96.1	–	–	–	–	–	98.5	97.4	86	90.6	104	92.8	90.5	81.7	98.8	106	99.1	99.5	90.6	114	110	0	0	0	0	0
CC(C)(C)NC(=O)N[C@H](C(=O)N1C[C@H]2[C@@H]([C@H]1C(=O)NC(CC1CCC1)C(=O)C(N)=O)C2(C)C)C(C)(C)C (stereo partly specified) [boceprevir]	> 10	> 10	> 10	–	> 10	98.2	96.9	109	93.7	95.7	102	98.6	99.6	96.4	97.5	100	102	93.9	96.1	93.9	–	–	–	–	–	93.7	101	101	95.2	105	0	0	0	–	0
COc1ccc(C(=O)Nc2sc3c(c2C(N)=O)CCCC3)cc1OC [TCS-359]	> 10	> 10	> 10	–	> 10	94.4	102	89.6	97.6	94.5	96.8	99	102	98.4	105	108	105	96	98.3	98.3	–	–	–	–	–	100	93.4	101	91.1	105	0	0	0	–	0
COc1cc2c(cc1Cc1cccc(Cl)c1F)c(=O)c(C(=O)O)cn2[C@H](CO)C(C)C [elvitegravir]	> 10	> 10	> 10	–	> 10	117	106	109	104	91	93.6	95.7	92.8	96.3	80.3	101	97.9	98	93.6	99.5	95.3	91.8	87.6	99.8	69.3	99.2	97.4	102	96.7	88.1	0	0.5	0	1.4	0.2
CN(Cc1ccccc1)C(=O)[C@H](Cc1ccc2ccccc2c1)NC(=O)[C@@H]1C[C@@H](O)CN1C(=O)c1cn(C)c2ccccc12 [FK-888]	> 10	> 10	> 10	–	> 10	106	111	106	93	82.3	103	98.7	98.5	103	87.2	105	103	101	95.2	99	99.7	105	99.2	94.7	69.3	99.3	94	90.6	90.5	86.7	1.1	0	0	2.2	0.6
O=C(O)CCCCC(CCSCc1ccccc1)SCc1ccccc1 (stereo unspecified) [CPI-613]	> 10	> 10	> 10	–	> 10	97.5	102	97.2	100	104	100	96.7	95.5	96.4	112	98.7	94.8	97.8	95.7	100	–	–	–	–	–	103	104	97.6	106	101	0	0	0	–	0
CC(C)[C@@H](CS(=O)(=O)C(C)C)N1C(=O)[C@@](C)(CC(=O)O)C[C@H](c2cccc(Cl)c2)[C@H]1c1ccc(Cl)cc1 [AMG-232]	0.266	–	0.568	> 10	> 10	102	96	85.9	33.5	24.4	98.5	95.5	97.4	71.2	65.8	96.8	99.1	98.4	58.1	44.6	99.6	97.7	94.2	91.3	82.9	99.9	92.4	93.1	96.7	93.8	14	5.2	8.1	0.7	0
CCCc1c(-c2ccc(O)cc2)nn(-c2ccc(O)cc2)c1-c1ccc(O)cc1 [PPT]	> 10	> 10	> 10	–	> 10	100	99.2	96	97	99.8	104	102	101	98.9	98.9	99.2	98.9	98.7	99.6	96	102	100	104	91	75	94.8	104	97.4	106	116	0	0	0	2.1	0
O=C(Nc1ccc(C(O)(C(F)(F)F)C(F)(F)F)cc1)c1ccc(C(F)(F)F)cc1 [SR-1078]	> 10	> 10	> 10	–	1.93	114	99.9	101	99	112	105	107	102	102	93.2	100	100	99.6	97.6	95.6	104	99.6	95.4	99.7	56.4	109	105	118	91.7	48.6	0	0	0	2.3	4.1
CCCC(=O)O[C@]1(C(=O)CCl)[C@@H](C)C[C@H]2[C@@H]3CCC4=CC(=O)C=C[C@]4(C)[C@@]3(F)C(=O)C[C@@]21C [clobetasone-butyrate]	> 10	> 10	> 10	–	> 10	96.2	104	97.9	90.3	88.5	93.1	96.1	91.8	95	87.9	108	102	109	98.5	93	94.7	103	94.1	94.3	74.6	96.1	112	97.3	100	89	0.3	0	0	1.7	0
CCC[C@@H](NC(=O)N1C(=O)C(CC)(CC)[C@@H]1Oc1ccc(C(=O)N2CCN(C)CC2)cc1)c1ccc2c(c1)OCO2 [DMP-777]	> 10	> 10	> 10	–	> 10	95.3	97.1	102	90.8	93	93.7	103	98.5	96.7	88	94.8	95.5	93.4	93.7	96.8	103	95	99.6	105	63.3	105	110	105	95.4	94.1	0	0.1	0	1.4	0
